The target in assay [1] is Matrix metalloproteinase-9 (Mus musculus) (UniProt P41245). The assay is described as follows: Inhibitory activity against murine gelatinase B at 5 mM was determined.
In assay [2] the target is Matrix metalloproteinase-9 (Mus musculus, UniProt P41245). Description: Inhibitory concentration was determined against murine gelatinase B.

For orientation: inhibition means the drop in the measured response relative to a control, in per cent. High values mean strong suppression, low ones little suppression. For orientation: IC50 means the point on the concentration scale where inhibition reaches its midpoint. Read a low IC50 as greater potency in that assay.

Where only a bound is given, the exact number is not on record here.

Sequence of Matrix metalloproteinase-9 (Mus musculus) (P41245 whole entry): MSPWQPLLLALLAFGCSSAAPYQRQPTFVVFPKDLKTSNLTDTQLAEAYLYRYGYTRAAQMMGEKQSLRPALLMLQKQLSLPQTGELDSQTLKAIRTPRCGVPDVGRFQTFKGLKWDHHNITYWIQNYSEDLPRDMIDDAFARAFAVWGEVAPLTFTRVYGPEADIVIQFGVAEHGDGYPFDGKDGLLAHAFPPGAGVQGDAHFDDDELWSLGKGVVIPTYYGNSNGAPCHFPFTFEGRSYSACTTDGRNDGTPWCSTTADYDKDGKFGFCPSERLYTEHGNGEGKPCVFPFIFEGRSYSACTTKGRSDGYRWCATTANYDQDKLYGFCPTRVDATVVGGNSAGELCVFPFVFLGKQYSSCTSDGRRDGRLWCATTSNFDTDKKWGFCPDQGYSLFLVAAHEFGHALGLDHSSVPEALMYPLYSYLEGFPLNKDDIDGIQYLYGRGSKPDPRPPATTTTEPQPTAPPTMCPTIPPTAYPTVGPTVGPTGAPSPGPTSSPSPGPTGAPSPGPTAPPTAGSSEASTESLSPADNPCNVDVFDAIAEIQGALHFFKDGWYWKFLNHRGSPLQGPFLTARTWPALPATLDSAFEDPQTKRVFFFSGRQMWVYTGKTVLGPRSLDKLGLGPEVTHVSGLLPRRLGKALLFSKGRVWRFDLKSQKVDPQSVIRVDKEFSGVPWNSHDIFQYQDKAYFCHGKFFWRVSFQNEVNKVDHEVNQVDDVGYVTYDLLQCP
Sequence of Matrix metalloproteinase-9 (P41245 whole entry): as above

As to `Oc1ccccn1`, the inhibition in assay [1] was under 5%. Take `NCc1nc2ccc(NCc3ccccc3OCc3ccccc3)cc2[nH]1`: the concentration for half-maximal inhibition (IC50) in assay [2] came out at 13 µM.

In assay [1], `NCc1ccccn1` gave an inhibition of 75%. `CCNCCN` showed an inhibition in assay [1] of under 5%.

`Cc1nc2cc(NCc3ccccc3OCc3ccccc3)ccc2[nH]1` showed a 50% inhibitory concentration (IC50) in assay [2] of over 300 µM. Same read-out and setting: under `OCc1nc2cc(NCc3ccccc3OCc3ccccc3)ccc2[nH]1` stands over 100 µM.

`NCCNCCN`: the inhibition in assay [1] was under 5%. Still for that read-out and setting: to `O=C(O)c1ccccc1` belongs under 5%; to `CC(=O)C1CCCC1=O` (centres undefined), 76%; to `CC(=O)NO`, under 5%.

`CC(=O)N(Cc1ccccc1OCc1ccccc1)c1ccc2nc(CN)[nH]c2c1` yielded a 50% inhibitory concentration (IC50) in assay [2] of 83 µM. On the same count and under the same terms, under `NCc1nc2ccc(NCc3ccc(OCc4ccccc4)cc3)cc2[nH]1` stands 51 µM. Still for that read-out and setting: to `NCc1nc2cc(NC(=O)/C=C/c3c(F)cccc3F)ccc2[nH]1` belongs 75 µM. Consider `NCc1nc2ccccc2[nH]1`, for which, in assay [1], the inhibition was 65%. For `Nc1ccccc1N`, in assay [1], the inhibition is 10%. For the compound `NCCN`, the inhibition in assay [1] was under 5%. Turning to `CC(=O)NCc1nc2ccc(NCc3ccccc3OCc3ccccc3)cc2[nH]1`, the IC50 in assay [2] is over 100 µM. On the same count and under the same terms, under `NCc1nc2ccc(NC(=O)c3ccc(C(=O)c4ccccc4)cc3)cc2[nH]1` stands 46 µM. Same read-out and setting: to `NCc1nc2ccc(NCc3ccccc3)cc2[nH]1` belongs 195 µM. The same measure, in the same setting: to `NCc1nc2ccc(NCC3CC=CCC3)cc2[nH]1` (centres undefined) belongs 92 µM; to `NCc1nc2ccc(NC(=O)c3ccccc3OCc3ccccc3)cc2[nH]1`, 48 µM.

Compound `NCc1nc2cc(NC(=O)/C=C/c3cccnc3)ccc2[nH]1` displayed an IC50 in assay [2] of 85 µM.

In the case of `OCc1nc2ccccc2s1`, the inhibition in assay [1] was 85%. Consider `NCc1nc2ccc(NCc3ccccc3Sc3ccccc3)cc2[nH]1`, for which the IC50 in assay [2] was determined as 56 µM. `CC(=O)Nc1nc(C)cs1`: the inhibition in assay [1] was under 5%.

As to `OCc1nc2ccccc2[nH]1`, the inhibition in assay [1] is 26%. `NCc1cc2cc(NCc3ccccc3OCc3ccccc3)ccc2[nH]1` came in with an IC50 in assay [2] of 72 µM. Regarding `NCCc1ccccn1`, in assay [1], the inhibition was under 5%.

Compound `NCc1nc2cc(N)ccc2[nH]1` yielded a concentration for half-maximal inhibition (IC50) in assay [2] of over 500 µM.

The record behind these values is ChEMBL document CHEMBL1134870, “Design and synthesis of novel inhibitors of gelatinase B” (Bioorg Med Chem Lett, 2002).
